Laboratory results: ChEMBL document CHEMBL3045989, “The Veratrum alkaloids jervine, veratramine, and their analogues as prostate cancer migration and proliferation inhibitors: biological evaluation and pharmacophore modeling” (Med Chem Res, 2013)
Active and inactive are the calls of the source. The calls are words filed in the database; no cut-off is given here.

Tests used:
Format in all cases: functional, cell-based
PC-3 [1] = experiment: Antiproliferative activity against Homo sapiens (human) PC3 cells at 50 uM after 72 hr by MTT assay
PC-3 [2] = experiment: Antimigratory activity against Homo sapiens (human) PC3 cells at 50 uM after 24 hr by wound-healing assay
PC-3 [3] = experiment: Antiproliferative activity against Homo sapiens (human) PC3 cells at 10 uM after 72 hr by MTT assay
PC-3 [4] = experiment: Antiproliferative activity against Homo sapiens (human) PC3 cells at 1 uM after 72 hr by MTT assay
PC-3 [5] = experiment: Antimigratory activity against Homo sapiens (human) PC3 cells at 200 uM after 24 hr by wound-healing assay

| SMILES | Activity (PC-3 [1]) | Activity (PC-3 [2]) | Activity (PC-3 [3]) | Activity (PC-3 [4]) | Activity (PC-3 [5]) |
| --- | --- | --- | --- | --- | --- |
| CC1=C2C(=O)[C@H]3[C@@H](CC=C4CC(=O)CC[C@@]43C)[C@@H]2CC[C@]12O[C@@H]1C[C@H](C)CN[C@H]1[C@H]2C | Active | Active |  |  |  |
| CC1=C2C(=O)[C@H]3[C@@H](CC=C4C[C@@H](O)CC[C@@]43C)[C@@H]2CC[C@]12O[C@@H]1C[C@H](C)CN[C@H]1[C@H]2C | Active | Active |  |  |  |
| Cc1c([C@H](C)[C@@H]2NC[C@@H](C)C[C@H]2O)ccc2c1C[C@H]1[C@H]2CC[C@H]2CC(=O)CC[C@@]21C | Active | Active |  |  |  |
| Cc1c([C@H](C)[C@@H]2NC[C@@H](C)C[C@H]2O)ccc2c1C[C@H]1[C@H]2CCC2=CC(=O)CC[C@@]21C | Active | Active | Active |  |  |
| CC1=C2C(=O)[C@H]3[C@@H](CC[C@H]4C[C@@H](O)C[C@H](O)[C@@]43C)[C@@H]2CC[C@]12O[C@@H]1C[C@H](C)CN[C@H]1[C@H]2C | inactive | Active |  |  |  |
| CC1=C2C(=O)[C@H]3[C@@H](CC[C@H]4C[C@@H](O)CC[C@@]43C)[C@@H]2CC[C@]12O[C@@H]1C[C@H](C)CN[C@H]1[C@H]2C | Active | inactive |  |  |  |
| C/C1=C/C(=O)O[C@@H]2C[C@@H](CC[C@H](C)/C=C\C=C\CC1)O[C@@](O)([C@@H]1CSC(=O)N1)C2 |  |  |  | Active |  |
| CC1=C2C(=O)[C@H]3[C@@H](CC=C4C[C@@H](O[C@@H]5O[C@H](CO)[C@@H](O)[C@H](O)[C@H]5O)CC[C@@]43C)[C@@H]2CC[C@]12O[C@@H]1C[C@H](C)CN[C@H]1[C@H]2C | inactive | inactive |  |  |  |
| O=C1NC(=O)/C(=C/c2ccc(O)cc2)N1 |  |  |  |  | Active |
| Cc1c([C@H](C)[C@@H]2NC[C@@H](C)C[C@H]2O)ccc2c1C[C@H]1[C@H]2CC=C2C[C@@H](O)CC[C@@]21C | Active | Active |  |  |  |
| Cc1c([C@H](C)[C@@H]2NC[C@@H](C)C[C@H]2O)ccc2c1C[C@H]1[C@H]2CCC2=CC(=O)C=C[C@@]21C | Active | Active |  |  |  |
